# Data published in ChEMBL document CHEMBL1201862, “PubChem BioAssay data set” (2004).
# Active and inactive are the calls of the source.
# Key:
# [1] = target: T1, Polyadenylate-binding protein 1 (Homo sapiens, UniProt P11940); assay: MLLE domain peptide-binding blockers, IC50 – biochemical, fluorescence polarization, FITC-PAM2 peptide, dose response (AID 602259); format: functional; conditions: read-out: IC50_Mean
# [2] = target: T1, Polyadenylate-binding protein 1; assay: MLLE binding blockers, Cy5 peptide tracer – biochemical, fluorescence polarization, Cy5-PAM2 peptide, secondary, miRNA deadenylation inhibitor project, dose response (AID 602260); format: functional; conditions: read-out: IC50_Mean
# Vero = assay: viability of Vero cells under compound – cytotoxicity control for flavivirus capping enzyme inhibitors (AID 588742); format: functional; conditions: Chlorocebus sabaeus
# Genome polyprotein = Genome polyprotein (dengue virus type 2, UniProt P29990); assay: flavivirus cap methylation enzyme inhibition – biochemical, confirmation dose response, primary screen (AID 588689); format: functional
# Genome polyprotein, sequence (P29990 2492-3391 limits assumed): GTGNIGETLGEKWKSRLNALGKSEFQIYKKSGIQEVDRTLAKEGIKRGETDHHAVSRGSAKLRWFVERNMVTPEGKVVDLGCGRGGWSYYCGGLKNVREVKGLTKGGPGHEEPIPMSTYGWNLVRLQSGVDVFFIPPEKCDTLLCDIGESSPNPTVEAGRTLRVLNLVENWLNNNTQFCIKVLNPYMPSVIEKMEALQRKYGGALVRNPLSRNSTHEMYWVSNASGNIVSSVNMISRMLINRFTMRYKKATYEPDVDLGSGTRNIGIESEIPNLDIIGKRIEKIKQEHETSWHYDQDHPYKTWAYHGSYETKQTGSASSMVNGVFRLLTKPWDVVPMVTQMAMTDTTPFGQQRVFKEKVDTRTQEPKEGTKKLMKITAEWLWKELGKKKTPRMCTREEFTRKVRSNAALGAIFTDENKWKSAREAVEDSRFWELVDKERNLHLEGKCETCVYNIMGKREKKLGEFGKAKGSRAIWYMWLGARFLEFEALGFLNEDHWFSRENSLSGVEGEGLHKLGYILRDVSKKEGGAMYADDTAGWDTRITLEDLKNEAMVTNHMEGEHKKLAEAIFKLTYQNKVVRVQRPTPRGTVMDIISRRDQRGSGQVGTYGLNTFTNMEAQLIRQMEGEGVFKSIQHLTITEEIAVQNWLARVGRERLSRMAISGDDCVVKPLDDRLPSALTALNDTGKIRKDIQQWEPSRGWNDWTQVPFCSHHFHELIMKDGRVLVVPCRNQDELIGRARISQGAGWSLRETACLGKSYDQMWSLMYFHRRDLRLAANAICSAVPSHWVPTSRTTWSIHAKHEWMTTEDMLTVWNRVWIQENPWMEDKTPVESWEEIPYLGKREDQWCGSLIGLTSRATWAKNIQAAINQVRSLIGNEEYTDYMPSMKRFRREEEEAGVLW
# [3] = target: T2, Microphthalmia-associated transcription factor (Homo sapiens, UniProt O75030); assay: reducers of TRPM1 reporter luminescence, concentration series – cell-based, SK-MEL-5, cherry-picked, set 3, MITF inhibitor project, dose response (AID 493073); format: functional;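 further: SK-MEL-5 melanoma cells with luciferase driven by the MITF target TRPM1 promoter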
# T2 sequence (O75030 whole entry): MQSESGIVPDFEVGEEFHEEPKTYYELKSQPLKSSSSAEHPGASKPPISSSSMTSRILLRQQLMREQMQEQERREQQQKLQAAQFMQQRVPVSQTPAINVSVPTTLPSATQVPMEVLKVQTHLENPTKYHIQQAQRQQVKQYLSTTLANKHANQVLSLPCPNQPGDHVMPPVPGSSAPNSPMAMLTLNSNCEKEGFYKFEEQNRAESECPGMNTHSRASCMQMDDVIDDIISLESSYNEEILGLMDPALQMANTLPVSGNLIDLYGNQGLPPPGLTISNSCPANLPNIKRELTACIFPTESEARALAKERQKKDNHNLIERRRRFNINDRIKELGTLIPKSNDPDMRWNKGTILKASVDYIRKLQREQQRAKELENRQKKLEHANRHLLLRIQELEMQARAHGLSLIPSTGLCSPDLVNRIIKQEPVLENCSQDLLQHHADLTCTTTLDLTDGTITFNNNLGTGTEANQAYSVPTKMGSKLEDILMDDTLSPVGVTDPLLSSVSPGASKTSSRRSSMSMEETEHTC
# HeLa = assay: ATP-based viability loss in HeLa cells – cell-based, CellTiter-Glo luminescence, cherry-pick samples, cytotoxicity control for MITF activator project, dose response (AID 540259); format: functional; conditions: Homo sapiens
# [4] = target: T3, Short transient receptor potential channel 4 (Mus musculus, UniProt Q9QUQ5); assay: block of DAMGO-driven TRPC4 calcium entry – cell-based, HEK293 TRPC4/mu-opioid, Fluo-4 calcium, dose response (AID 434942); format: functional;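 further: potency of inhibitors blocking the TRPC4 calcium response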
# T3 sequence (Q9QUQ5 whole entry): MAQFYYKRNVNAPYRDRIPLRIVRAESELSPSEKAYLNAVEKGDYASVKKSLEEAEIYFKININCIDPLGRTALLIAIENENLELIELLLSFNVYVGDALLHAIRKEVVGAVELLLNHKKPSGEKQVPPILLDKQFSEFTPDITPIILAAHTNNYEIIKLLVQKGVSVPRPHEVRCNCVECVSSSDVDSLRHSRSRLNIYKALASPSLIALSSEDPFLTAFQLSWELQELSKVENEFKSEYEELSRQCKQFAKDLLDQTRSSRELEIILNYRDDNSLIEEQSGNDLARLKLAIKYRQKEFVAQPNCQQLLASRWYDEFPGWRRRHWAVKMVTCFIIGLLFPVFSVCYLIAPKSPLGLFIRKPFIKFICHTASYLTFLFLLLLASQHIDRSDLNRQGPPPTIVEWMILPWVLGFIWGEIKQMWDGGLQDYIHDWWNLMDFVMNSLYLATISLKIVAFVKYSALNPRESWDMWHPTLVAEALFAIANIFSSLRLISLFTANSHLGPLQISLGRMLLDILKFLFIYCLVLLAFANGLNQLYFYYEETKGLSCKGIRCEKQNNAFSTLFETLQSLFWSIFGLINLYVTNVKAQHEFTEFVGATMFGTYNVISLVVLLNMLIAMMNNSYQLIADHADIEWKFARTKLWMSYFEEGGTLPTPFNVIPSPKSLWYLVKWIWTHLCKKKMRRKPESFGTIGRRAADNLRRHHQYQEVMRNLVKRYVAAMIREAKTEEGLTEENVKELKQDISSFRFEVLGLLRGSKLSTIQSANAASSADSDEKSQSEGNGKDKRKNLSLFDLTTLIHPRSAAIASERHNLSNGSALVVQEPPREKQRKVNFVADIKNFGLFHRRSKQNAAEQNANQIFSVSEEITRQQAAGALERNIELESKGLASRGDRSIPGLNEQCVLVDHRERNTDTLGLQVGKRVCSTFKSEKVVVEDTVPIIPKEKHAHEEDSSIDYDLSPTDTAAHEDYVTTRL
# Protein Wnt-3a = Protein Wnt-3a (Mus musculus, UniProt P27467); assay: antagonism of Wnt3a pathway luciferase reporter – Wnt-LIGHT cells, luminescence, selectivity assay for Gli-SUFU antagonist project, dose response (AID 651570); format: functional; conditions: read-out: IC50_Mean;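 further: Wnt-LIGHT reporter cells stimulated with conditioned medium from Wnt3a-producing cells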
# Protein Wnt-3a, sequence (P27467 whole entry): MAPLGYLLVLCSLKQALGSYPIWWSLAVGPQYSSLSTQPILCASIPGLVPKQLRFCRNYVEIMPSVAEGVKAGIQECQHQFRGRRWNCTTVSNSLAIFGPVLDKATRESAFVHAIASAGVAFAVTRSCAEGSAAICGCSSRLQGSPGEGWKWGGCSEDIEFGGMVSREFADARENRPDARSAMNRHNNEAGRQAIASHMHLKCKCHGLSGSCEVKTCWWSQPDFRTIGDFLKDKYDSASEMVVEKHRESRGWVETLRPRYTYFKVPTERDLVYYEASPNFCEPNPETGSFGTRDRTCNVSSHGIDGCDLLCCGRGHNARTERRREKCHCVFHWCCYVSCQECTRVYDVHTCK
# Leucine aminopeptidase = target: T4, Leucine aminopeptidase (Plasmodium falciparum 3D7, UniProt Q8IL11); assay: P. falciparum M17LAP inhibitors, primary screen, biochemical, fluorogenic H-Leu-NHMec substrate, 1536-well (AID 1619); format: functional
# T4 sequence (Q8IL11 whole entry): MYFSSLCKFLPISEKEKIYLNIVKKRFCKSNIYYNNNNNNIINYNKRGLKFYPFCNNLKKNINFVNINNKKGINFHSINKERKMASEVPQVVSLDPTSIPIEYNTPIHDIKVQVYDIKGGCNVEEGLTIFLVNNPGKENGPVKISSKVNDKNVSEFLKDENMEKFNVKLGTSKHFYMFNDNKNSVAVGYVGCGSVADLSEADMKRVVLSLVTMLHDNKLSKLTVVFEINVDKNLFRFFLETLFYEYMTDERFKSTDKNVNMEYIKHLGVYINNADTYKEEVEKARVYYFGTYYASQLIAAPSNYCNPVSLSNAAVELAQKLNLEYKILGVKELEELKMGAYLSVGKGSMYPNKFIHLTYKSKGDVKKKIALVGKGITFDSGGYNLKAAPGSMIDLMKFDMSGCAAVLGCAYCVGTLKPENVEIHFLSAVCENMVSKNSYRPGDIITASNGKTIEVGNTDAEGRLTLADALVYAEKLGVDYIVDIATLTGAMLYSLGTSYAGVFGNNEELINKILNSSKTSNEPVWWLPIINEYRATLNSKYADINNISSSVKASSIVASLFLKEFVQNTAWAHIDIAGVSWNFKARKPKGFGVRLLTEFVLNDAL
# Coagulation factor XII = target: T5, Coagulation factor XII (Homo sapiens, UniProt P00748); format: functional;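 further: activated factor XIIa alpha cleaving a fluorogenic AMC peptide substrate; inhibitor potency from loss of enzyme activity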
# T5 sequence (P00748 whole entry): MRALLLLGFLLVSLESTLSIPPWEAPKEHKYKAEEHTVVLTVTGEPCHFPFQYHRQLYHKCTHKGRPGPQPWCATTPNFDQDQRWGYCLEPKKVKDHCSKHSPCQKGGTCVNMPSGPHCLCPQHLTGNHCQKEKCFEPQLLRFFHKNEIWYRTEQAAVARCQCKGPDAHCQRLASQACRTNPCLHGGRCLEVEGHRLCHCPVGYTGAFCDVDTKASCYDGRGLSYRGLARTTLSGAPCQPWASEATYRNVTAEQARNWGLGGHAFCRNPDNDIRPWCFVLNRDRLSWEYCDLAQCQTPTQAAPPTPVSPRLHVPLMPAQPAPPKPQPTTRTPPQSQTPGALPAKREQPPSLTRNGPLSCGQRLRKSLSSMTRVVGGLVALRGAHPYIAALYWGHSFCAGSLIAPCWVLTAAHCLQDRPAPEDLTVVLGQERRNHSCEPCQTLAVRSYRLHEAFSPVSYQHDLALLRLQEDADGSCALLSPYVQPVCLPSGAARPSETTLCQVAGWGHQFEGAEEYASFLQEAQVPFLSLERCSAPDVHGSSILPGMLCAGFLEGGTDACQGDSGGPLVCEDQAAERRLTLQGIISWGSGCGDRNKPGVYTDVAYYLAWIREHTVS
# [5] = target: Induced myeloid leukemia cell differentiation protein Mcl-1 (Homo sapiens, UniProt Q07820); format: functional
# Induced myeloid leukemia cell differentiation protein Mcl-1, sequence (Q07820 whole entry): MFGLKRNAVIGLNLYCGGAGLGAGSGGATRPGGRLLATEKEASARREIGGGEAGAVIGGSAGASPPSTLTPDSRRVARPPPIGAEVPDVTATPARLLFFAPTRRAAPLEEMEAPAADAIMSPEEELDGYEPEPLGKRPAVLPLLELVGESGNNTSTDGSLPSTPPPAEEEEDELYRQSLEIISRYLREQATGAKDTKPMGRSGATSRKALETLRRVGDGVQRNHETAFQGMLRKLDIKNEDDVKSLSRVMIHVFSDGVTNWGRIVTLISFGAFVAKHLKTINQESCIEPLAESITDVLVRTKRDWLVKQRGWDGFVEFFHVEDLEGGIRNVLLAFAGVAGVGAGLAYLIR
# [6] = NIH-3T3 fibroblast cytotoxicity, dose response, cytotoxicity control, cell-based, fluorescence, Alamar Blue, secondary assay (AID 2327); format: functional;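 further: NIH-3T3 mouse fibroblasts cultured with fluconazole at 8 µg/mL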
# [7] = fluconazole-exposed Candida albicans growth modulators – fluorescence, retest, confirmation (AID 2467); format: functional, cell-based
# [8] = Trypanosoma cruzi growth suppression in host cells – NIH3T3 host cells, beta-gal luminescence, confirmation (AID 2044); format: functional, cell-based;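 further: intracellular parasites grown in NIH/3T3 mouse fibroblasts as host cells; luminescent beta-galactosidase reporter signal from transgenic T. cruzi replicating inside host cells; inhibitors lower the luminescence signal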
# [9] = NIH3T3 cell viability loss – ATP luminescence, mouse fibroblasts, counter-screen, dose response (AID 2010); format: functional, cell-based;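 further: cells exposed to compound for about 90 hours before reading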
# Prothrombin = Prothrombin (Homo sapiens, UniProt P00734); assay: Thrombin 1536 HTS Dose Response Confirmation. [Related pubchem assays: 1046 (Thrombin 1536 HTS; hits were confirmed in this assay)]; format: functional
# T1 sequence (P11940 whole entry, the tested form may be a part): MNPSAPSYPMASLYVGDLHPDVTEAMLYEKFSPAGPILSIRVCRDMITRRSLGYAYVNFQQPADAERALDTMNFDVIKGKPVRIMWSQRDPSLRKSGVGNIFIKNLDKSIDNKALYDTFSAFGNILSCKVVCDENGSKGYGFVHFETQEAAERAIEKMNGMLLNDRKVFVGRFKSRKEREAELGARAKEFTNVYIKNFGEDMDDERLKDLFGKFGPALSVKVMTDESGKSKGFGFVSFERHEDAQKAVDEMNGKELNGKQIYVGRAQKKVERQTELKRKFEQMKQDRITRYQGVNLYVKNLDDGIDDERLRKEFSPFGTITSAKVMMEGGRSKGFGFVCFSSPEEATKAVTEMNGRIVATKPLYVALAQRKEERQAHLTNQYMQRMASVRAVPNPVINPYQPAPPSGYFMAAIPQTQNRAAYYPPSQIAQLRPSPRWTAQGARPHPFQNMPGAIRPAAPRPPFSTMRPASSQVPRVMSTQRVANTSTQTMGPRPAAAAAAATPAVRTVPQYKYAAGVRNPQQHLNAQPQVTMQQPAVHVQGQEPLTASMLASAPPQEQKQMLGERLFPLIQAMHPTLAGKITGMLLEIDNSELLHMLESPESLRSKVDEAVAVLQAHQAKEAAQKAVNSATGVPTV
structure (smiles),measurement,setting,value
N#Cc1c(NC(=O)C2CC(c3ccccc3O)=NO2)sc2c1CCC2 (configuration not stated),IC50,[1],> 66 µM (inactive)
same,IC50,[2],> 66 µM (inactive)
Cc1ccc2nc3cc([N+](=O)[O-])cc([N+](=O)[O-])c3cc2c1,CC50,Vero,6.28 µM (active)
same,IC50,Genome polyprotein,9.85 µM (active)
same,AC50,[3],8.46 µM (active)
O=C(NC1CCCCCC1)c1c(O)nc2ccccc2c1O,AC50,HeLa,62.7 µM (active)
Cc1c(C(=O)Nc2ccccc2F)cnn1-c1ccccc1,AC50,HeLa,80.9 µM (active)
CNc1nc(NCc2ccccc2)c2ccccc2n1,EC50,[4],1.19 µM (active)
same,IC50,Protein Wnt-3a,43.1 µM (inactive)
O=C(NCc1ccco1)C(=O)c1cn(CC(=O)N2CCCCCC2)c2ccccc12,IC50,Leucine aminopeptidase,11.6 µM (active)
CCOc1ccc(-n2c(SCC(=O)Nc3cc(C)on3)nnc2-c2c[nH]c3ccccc23)cc1,IC50,Coagulation factor XII,> 50 µM (inactive)
Cc1cc(O)n2nc(-c3ccsc3-n3c(C)ccc3C)cc2n1,IC50,[5],4.96 µM (active)
O=C(CSc1nc2c(c(=O)n1-c1ccc(F)cc1)SCC2)NCc1ccco1,IC50,[1],> 66 µM (inactive)
same,IC50,[2],> 66 µM (inactive)
CCOc1ccc(N(CC(=O)Nc2cccc(F)c2)S(=O)(=O)c2c(C)noc2C)cc1,IC50,Coagulation factor XII,> 50 µM (inactive)
O=C1N=C(Nc2ccccc2Cl)S/C1=C\c1cccc([N+](=O)[O-])c1O,CC50,Vero,> 40 µM (active)
same,EC50,[6],> 150 µM (inactive)
same,EC50,[7],7.16 µM (active)
O=C(Nc1ccc(Cl)c(Cl)c1)OCc1cccnc1,EC50,[8],2.5 µM (active)
same,EC50,[9],> 30 µM (not active)
same,AC50,HeLa,39.5 µM (active)
Cc1ccccc1NC(=O)c1ccc(NC(=O)C2CC(=O)OC23CCCCC3)cc1 (configuration not stated),IC50,Prothrombin,> 50 µM (not active)
